Experimental data as given in ChEMBL document CHEMBL1152153, “Synthesis and activity of novel 1- or 3-(3-amino-1-phenyl propyl)-1,3-dihydro-2H-benzimidazol-2-ones as selective norepinephrine reuptake inhibitors” (Bioorg Med Chem Lett, 2008).

Key:
[1] = biological target: Sodium-dependent dopamine transporter (Homo sapiens) (UniProt Q01959); assay: Displacement of [3H]WIN-35428 from human recombinant DAT expressed in CHO cells at 10 uM; format: cell-based
[2] = biological target: T1, Sodium-dependent serotonin transporter (Homo sapiens, UniProt P31645); format: cell-based, JAR
Target sequence in this assay (P31645 whole entry): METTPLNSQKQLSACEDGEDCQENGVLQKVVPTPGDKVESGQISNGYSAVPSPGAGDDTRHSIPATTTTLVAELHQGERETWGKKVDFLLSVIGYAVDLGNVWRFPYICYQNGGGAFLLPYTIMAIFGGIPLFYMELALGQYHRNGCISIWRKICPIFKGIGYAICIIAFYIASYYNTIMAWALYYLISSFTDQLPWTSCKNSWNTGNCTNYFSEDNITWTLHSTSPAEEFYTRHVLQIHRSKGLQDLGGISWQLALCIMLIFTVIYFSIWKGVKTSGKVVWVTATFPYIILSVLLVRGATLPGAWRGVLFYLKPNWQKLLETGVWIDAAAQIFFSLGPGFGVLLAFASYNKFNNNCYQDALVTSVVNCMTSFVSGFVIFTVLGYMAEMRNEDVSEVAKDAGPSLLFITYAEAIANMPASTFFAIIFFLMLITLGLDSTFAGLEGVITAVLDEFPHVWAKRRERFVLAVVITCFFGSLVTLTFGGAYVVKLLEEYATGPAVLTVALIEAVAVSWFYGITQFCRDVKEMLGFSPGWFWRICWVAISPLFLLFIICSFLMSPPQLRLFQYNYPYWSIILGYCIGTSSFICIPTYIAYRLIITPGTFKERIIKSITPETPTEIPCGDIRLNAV

[3] = species: Homo sapiens; assay: Ratio of IC50 for human SERT to IC50 for human NET
[4] = biological target: T2, Sodium-dependent noradrenaline transporter (Homo sapiens, UniProt P23975)
T2 sequence (P23975 whole entry): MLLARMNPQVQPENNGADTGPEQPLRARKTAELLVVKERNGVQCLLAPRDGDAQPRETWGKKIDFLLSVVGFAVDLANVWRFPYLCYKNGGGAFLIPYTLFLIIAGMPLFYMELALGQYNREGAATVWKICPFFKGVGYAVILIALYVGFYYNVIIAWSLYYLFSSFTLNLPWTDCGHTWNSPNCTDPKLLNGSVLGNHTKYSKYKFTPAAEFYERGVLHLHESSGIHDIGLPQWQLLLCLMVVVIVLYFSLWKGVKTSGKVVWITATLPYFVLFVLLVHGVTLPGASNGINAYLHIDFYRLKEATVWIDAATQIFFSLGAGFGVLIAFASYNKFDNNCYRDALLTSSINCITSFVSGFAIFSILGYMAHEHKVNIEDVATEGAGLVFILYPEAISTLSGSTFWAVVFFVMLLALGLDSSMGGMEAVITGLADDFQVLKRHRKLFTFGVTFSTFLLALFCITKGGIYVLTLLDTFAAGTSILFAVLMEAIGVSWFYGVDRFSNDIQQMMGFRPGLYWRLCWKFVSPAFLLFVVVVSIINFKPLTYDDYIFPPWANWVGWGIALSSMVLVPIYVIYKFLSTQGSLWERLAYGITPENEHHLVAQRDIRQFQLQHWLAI

[5] = biological target: T1, Sodium-dependent serotonin transporter; assay: Inhibition of serotonin uptake at human SERT expressed in JAR cells at 1 uM; format: cell-based
Target sequence in this assay (P31645 whole entry, looked up): as the sequence (P31645 whole entry) above

[6] = biological target: T2, Sodium-dependent noradrenaline transporter; assay: Inhibition of norepinephrine uptake at human NET expressed in MDCK-Net6 cells at 1 uM; format: cell-based
[7] = biological target: T1, Sodium-dependent serotonin transporter; assay: Inhibition of serotonin uptake at human SERT expressed in JAR cells at 10 uM; format: cell-based
Target sequence in this assay (P31645 whole entry, looked up): as the sequence (P31645 whole entry) above

Sodium-dependent dopamine transporter (Homo sapiens), sequence (Q01959 whole entry): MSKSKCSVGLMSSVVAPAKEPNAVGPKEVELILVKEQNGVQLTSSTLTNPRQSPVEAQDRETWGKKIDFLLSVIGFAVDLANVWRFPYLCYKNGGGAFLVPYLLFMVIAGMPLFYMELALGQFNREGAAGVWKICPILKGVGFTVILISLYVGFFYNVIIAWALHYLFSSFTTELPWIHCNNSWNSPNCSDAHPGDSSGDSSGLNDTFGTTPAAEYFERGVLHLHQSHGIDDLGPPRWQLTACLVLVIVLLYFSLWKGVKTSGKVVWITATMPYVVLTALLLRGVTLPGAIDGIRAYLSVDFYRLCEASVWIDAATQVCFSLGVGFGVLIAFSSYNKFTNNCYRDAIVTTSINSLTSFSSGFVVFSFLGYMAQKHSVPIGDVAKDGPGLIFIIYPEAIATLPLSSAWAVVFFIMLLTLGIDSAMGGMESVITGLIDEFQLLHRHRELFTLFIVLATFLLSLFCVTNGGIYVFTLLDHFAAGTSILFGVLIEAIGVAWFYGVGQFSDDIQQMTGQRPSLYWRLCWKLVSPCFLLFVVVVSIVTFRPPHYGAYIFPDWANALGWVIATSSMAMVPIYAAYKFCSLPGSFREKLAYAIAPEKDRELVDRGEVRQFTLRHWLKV

Row | Compound | inhibition [1] [%] | IC50 [2] [nM] | Ratio IC50 [3] | IC50 [4] [nM] | inhibition [5] [%] | inhibition [6] [%] | inhibition [7] [%]
1 | CNCC[C@H](c1ccccc1)n1c(=O)sc2ccccc21 | 36 | 1910 | 16 | 121 |  |  | 
2 | CNCC[C@H](c1ccccc1)n1c(=O)n(-c2ccccc2F)c2cccc(F)c21 |  | 483 | 80 | 6 |  |  | 
3 | CNCC[C@H](c1ccccc1)n1c(=O)n(C2CCCC2)c2ccccc21 | 22 |  |  | 201 | 16 |  | 
4 | CCn1c(=O)n([C@H](CCNC)c2ccccc2)c2ccccc21 | 4 | 4310 | 98 | 44 |  |  | 
5 | CNCC[C@H](c1ccccc1)n1c(=O)n(C2CCCCC2)c2ccccc21 | 24 |  |  | 311 | 20 |  | 
6 | CCNCC[C@H](c1ccccc1)n1c(=O)n(CC)c2ccccc21 |  |  |  |  |  | 27 | 
7 | CNCC[C@H](c1ccccc1)n1c(=O)n(C(C)C)c2ccccc21 | 11 |  | 450 | 22 | 2 |  | 53
8 | CCCn1c(=O)n([C@@H](CCNC)c2ccccc2)c2ccccc21 | 5 | 166 |  | 627 |  |  | 
9 | CCn1c(=O)n([C@H](CCN)c2ccccc2)c2ccccc21 |  |  |  |  |  | 51 | 
10 | CNCC[C@@H](c1ccccc1)n1c(=O)n(-c2ccccc2)c2ccccc21 | 23 | 273 |  | 215 |  |  | 
11 | CCn1c(=O)n([C@H](CCNC)c2cccc(F)c2)c2c(F)cccc21 | 14 |  |  | 19 | 28 |  | 
12 | CNCC[C@@H](c1ccccc1)n1c(=O)n(C2CC2)c2ccccc21 |  |  |  |  |  | 25 | 
13 | CNCC[C@H](c1ccccc1)n1c(=O)n(C2CC2)c2ccccc21 | 7 | 4570 | 28 | 166 |  |  | 
14 | CNCC[C@H](c1ccccc1)n1c(=O)n(C(C)C)c2cccc(F)c21 | 5 | 1210 | 40 | 30 |  |  | 

The remaining lines, values ahead:

Row | inhibition [1] [%] | IC50 [2] [nM] | Ratio IC50 [3] | IC50 [4] [nM] | inhibition [5] [%] | inhibition [6] [%] | inhibition [7] [%] | Compound
15 | 33 | 3000 | 333 | 9 |  |  |  | CNCC[C@H](c1ccccc1)n1c(=O)n(-c2ccccc2)c2ccccc21
16 | 31 | 1410 |  | 1050 |  |  |  | CNCC[C@@H](c1ccccc1)n1c(=O)n(C(C)C)c2cccc(F)c21
17 |  |  | 7 |  |  |  |  | CNCCC(c1ccccc1)n1ccc2ccccc21 (centres undefined)
18 | 3 | 3100 | 97 | 32 |  |  |  | CCCn1c(=O)n([C@H](CCNC)c2ccccc2)c2ccccc21
19 |  |  |  |  |  | 27 |  | CC(C)n1c(=O)n([C@H](CCN(C)C)c2ccccc2)c2c(F)cccc21
20 | 12 |  |  | 463 | 10 |  |  | CNCC[C@H](c1ccccc1)n1c(=O)n(C)c2ccccc21
21 |  |  |  |  |  | 21 |  | CNCC[C@@H](c1ccccc1)n1c(=O)n(C(C)C)c2ccccc21
